# Results as given in patent publication US20180028627A1, “TREATMENT VACCINE FOR PROSTATE CANCER” (Bioventures, LLC, priority 2015, published 2018).
# Residues, ends and D or L forms follow the SMILES beside them.
# Key:
# [1] = PSA peptide solubility testing (turbidity); conditions: for Solubility, peptides tested individually: pH 4 or pH 5 with succinate (10 mM) or glutamate (10 mM)
# [2] = tested on: CD3 T-cells co-cultured with autologous LCs; assay: T-cell proliferation induced by treated LCs, alamarBlue; type: cell-based, human
molecule,measurement,setting,value
"CC[C@H](C)[C@H](NC(=O)[C@H](Cc1c[nH]c2ccccc12)NC(=O)[C@@H](NC(=O)[C@@H](NC(=O)[C@H](CO)NC(=O)[C@H](CC(C)C)NC(=O)[C@@H](NC(=O)[C@H](CC(C)C)NC(=O)[C@H](Cc1ccccc1)NC(=O)[C@@H](NC(=O)[C@@H](NC(=O)[C@@H]1CCCN1C(=O)[C@@H](NC(=O)[C@H](Cc1c[nH]c2ccccc12)NC(=O)[C@H](CCSC)NC(C)=O)C(C)C)C(C)C)C(C)C)[C@@H](C)O)C(C)C)[C@@H](C)O)C(=O)NCC(=O)N[C@@H](C)C(=O)N[C@@H](C)C(=O)N1CCC[C@H]1C(=O)N[C@@H](CC(C)C)C(=O)N[C@H](C(=O)N[C@@H](CC(C)C)C(=O)N[C@@H](CO)C(=O)N[C@@H](CCCNC(=N)N)C(=O)N[C@H](C(=O)N[C@H](C(=O)NCC(=O)NCC(=O)N[C@@H](Cc1c[nH]c2ccccc12)C(=O)N[C@@H](CCC(=O)O)C(=O)N[C@@H](CS)C(=O)N[C@@H](CCC(=O)O)C(=O)N[C@@H](CCCCN)C(=O)N[C@@H](Cc1c[nH]cn1)C(=O)N[C@@H](CO)C(=O)N[C@@H](CCC(N)=O)C(=O)N1CCC[C@H]1C(=O)N[C@@H](Cc1c[nH]c2ccccc12)C(=O)N[C@@H](CCC(N)=O)C(=O)N[C@H](C(N)=O)C(C)C)C(C)C)[C@@H](C)CC)[C@@H](C)CC [PSA 1-40, MWVPVVFLTLSVTWIGAAPLILSRIVGGWECEKHSQPWQV] (Ac-MWVPVVFLTLSVTWIGAAPLILSRIVGGWECEKHSQPWQV-NH2; N-terminus and C-terminus assumed)",Solubility,"[1]; after dilution from 20 mg/ml to 5 mg/ml, 10 mM succinate, pH5.0 with 5% glycine",remained insoluble
same,Solubility,"[1]; at 20 mg/ml in 10 mM succinate, pH5.0 with 5% glycine",insoluble
same,Solubility,[1]; in the presence of other PSA peptides,solubility was enhanced
same,"Solubility, peptides tested individually",[1],All except PSA 1-40 were soluble in both buffers
same,Solubility,[1]; pH 5,5.5 mg/mL
"CC[C@H](C)[C@H](NC(=O)[C@H](CS)NC(=O)[C@H](Cc1c[nH]cn1)NC(=O)[C@H](C)NC(=O)[C@H](C)NC(=O)[C@@H](NC(=O)[C@H](CC(C)C)NC(=O)[C@@H](NC(=O)[C@H](Cc1c[nH]c2ccccc12)NC(=O)[C@H](CCC(N)=O)NC(=O)[C@@H]1CCCN1C(=O)[C@H](Cc1c[nH]cn1)NC(=O)[C@@H](NC(=O)[C@H](CC(C)C)NC(=O)[C@@H](NC(=O)CNC(=O)CNC(=O)[C@H](CS)NC(=O)[C@@H](NC(=O)[C@H](C)NC(=O)[C@H](CCCNC(=N)N)NC(=O)CNC(=O)[C@H](CCCNC(=N)N)NC(=O)[C@H](CO)NC(=O)[C@H](C)NC(=O)[C@@H](NC(=O)[C@H](CC(C)C)NC(C)=O)C(C)C)C(C)C)C(C)C)C(C)C)C(C)C)[C@@H](C)O)C(=O)N[C@@H](CCCNC(=N)N)C(=O)N[C@@H](CC(N)=O)C(=O)N[C@@H](CCCCN)C(=O)N[C@@H](CO)C(=O)N[C@H](C(=O)N[C@H](C(=O)N[C@@H](CC(C)C)C(=O)N[C@@H](CC(C)C)C(=O)NCC(=O)N[C@@H](CCCNC(=N)N)C(=O)N[C@@H](Cc1c[nH]cn1)C(=O)N[C@@H](CO)C(=O)N[C@@H](CC(C)C)C(N)=O)[C@@H](C)CC)C(C)C [PSA 41-80, LVASRGRAVCGGVLVHPQWVLTAAHCIRNKSVILLGRHSL] (Ac-LVASRGRAVCGGVLVHPQWVLTAAHCIRNKSVILLGRHSL-NH2; N-terminus and C-terminus assumed)","Solubility, peptides tested individually",[1],soluble in both buffers
"CSCC[C@H](NC(=O)[C@H](CC(=O)O)NC(=O)[C@H](Cc1ccc(O)cc1)NC(=O)[C@H](CC(C)C)NC(=O)[C@@H]1CCCN1C(=O)[C@H](Cc1c[nH]cn1)NC(=O)[C@@H]1CCCN1C(=O)[C@H](Cc1ccccc1)NC(=O)[C@H](CO)NC(=O)[C@H](Cc1c[nH]cn1)NC(=O)[C@H](CO)NC(=O)[C@@H](NC(=O)[C@H](CCC(N)=O)NC(=O)[C@H](Cc1ccccc1)NC(=O)[C@@H](NC(=O)[C@H](CCC(N)=O)NC(=O)CNC(=O)[C@@H](NC(=O)[C@H](CC(=O)O)NC(=O)[C@H](CCC(=O)O)NC(=O)[C@@H]1CCCN1C(=O)[C@H](Cc1c[nH]cn1)NC(=O)[C@H](Cc1ccccc1)NC(C)=O)[C@@H](C)O)C(C)C)C(C)C)C(=O)N[C@@H](CO)C(=O)N[C@@H](CC(C)C)C(=O)N[C@@H](CC(C)C)C(=O)N[C@@H](CCCCN)C(=O)N[C@@H](CC(N)=O)C(=O)N[C@@H](CCCNC(=N)N)C(=O)N[C@@H](Cc1ccccc1)C(=O)N[C@@H](CC(C)C)C(=O)N[C@@H](CCCNC(=N)N)C(=O)N1CCC[C@H]1C(=O)NCC(=O)N[C@@H](CC(=O)O)C(=O)N[C@@H](CC(=O)O)C(=O)N[C@@H](CO)C(=O)N[C@@H](CO)C(=O)N[C@@H](Cc1c[nH]cn1)C(=O)N[C@@H](CC(=O)O)C(N)=O [PSA 81-120, FHPEDTGQVFQVSHSFPHPLYDMSLLKNRFLRPGDDSSHD] (Ac-FHPEDTGQVFQVSHSFPHPLYDMSLLKNRFLRPGDDSSHD-NH2; N-terminus and C-terminus assumed)","Solubility, peptides tested individually",[1],soluble in both buffers
"CC[C@H](C)[C@H](NC(=O)[C@H](Cc1c[nH]c2ccccc12)NC(=O)[C@H](CCCCN)NC(=O)[C@H](CCCNC(=N)N)NC(=O)[C@H](Cc1ccc(O)cc1)NC(=O)[C@H](Cc1c[nH]cn1)NC(=O)[C@@H](NC(=O)[C@@H](NC(=O)[C@H](CCCCN)NC(=O)[C@@H](NC(=O)[C@H](Cc1ccc(O)cc1)NC(=O)[C@H](CC(C)C)NC(=O)[C@H](CO)NC(C)=O)[C@@H](C)O)C(C)C)C(C)C)C(=O)N[C@@H](CCCCN)C(=O)N[C@@H](CC(=O)O)C(=O)N[C@H](C(=O)N[C@H](C(=O)N[C@H](C(=O)N[C@@H](C)C(=O)N[C@@H](CC(N)=O)C(=O)N1CCC[C@H]1C(N)=O)C(C)C)[C@@H](C)CC)[C@@H](C)O [PSA 241-261, SLYTKVVHYR KWIKDTIVAN P] (Ac-SLYTKVVHYRKWIKDTIVANP-NH2; N-terminus and C-terminus assumed)","Solubility, peptides tested individually",[1],soluble in both buffers
tetanus toxoid,T-cell proliferation,"[2]; over media, 7 days co-culture of T cells with autologous LCs",no significant increase over media
same,"Measurable proliferation, increased fluorescence",[2]; subjects 2 and 5,≥ 5000
